In ChEMBL document CHEMBL1201862, “PubChem BioAssay data set” (2004):
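How tested: cells in 96-well plates exposed to compound for 48 hours at five concentrations. Abbreviation: GI50, concentration required for 50% inhibition of growth.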 Calls of active or inactive are those of the source. Cut-off read from the data, not from the text of the source: active = GI50 up to about 1.1 µM and inactive = higher.

How the values were obtained:
Assay in all cases: NCI tumour cell line growth inhibition, 48 h
[1] = test system: 786-0
[2] = test system: BT-549
[3] = test system: CAKI-1
[4] = test system: DU-145
[5] = test system: HCC 2998
[6] = test system: HCT-15
[7] = test system: HOP-92
[8] = test system: K562
[9] = test system: MCF7
[10] = test system: MDA-MB-231
[11] = test system: NCI/ADR-RES
[12] = test system: OVCAR-3
[13] = test system: OVCAR-5
[14] = test system: PC-3
[15] = test system: SF-268
[16] = test system: SF-539
[17] = test system: SNB-75
[18] = test system: SW-620
[19] = test system: T47D
[20] = test system: UO-31

| Compound | GI50 [1] | GI50 [2] | GI50 [3] | GI50 [4] | GI50 [5] | GI50 [6] | GI50 [7] | GI50 [8] | GI50 [9] | GI50 [10] | GI50 [11] | GI50 [12] | GI50 [13] | GI50 [14] | GI50 [15] | GI50 [16] | GI50 [17] | GI50 [18] | GI50 [19] | GI50 [20] |
| --- | --- | --- | --- | --- | --- | --- | --- | --- | --- | --- | --- | --- | --- | --- | --- | --- | --- | --- | --- | --- |
| Cc1nc(N/N=C/c2ccccc2Cl)[nH]c(=O)c1CCO | > 100 µM (inactive) | 57.1 µM (inactive) | > 10 µM (inactive) | > 100 µM (inactive) | > 100 µM (inactive) | 81.1 µM | 21.5 µM (inactive) | > 100 µM (inactive) | 36.2 µM (inactive) | 71 µM (inactive) | 61.1 µM (inactive) | 19.6 µM (inactive) | > 100 µM (inactive) | > 100 µM (inactive) | 33.5 µM (inactive) | 77.4 µM (inactive) | 17.2 µM (inactive) | > 100 µM (inactive) | 24.8 µM (inactive) | > 100 µM (inactive) |
| O=C1C(CO)=C(CO)C(=O)c2c(O)ccc(O)c21 | 0.361 µM (active) | 0.204 µM (active) | 0.387 µM (active) | 1.85 µM (inactive) | 2.06 µM (inactive) | 0.214 µM | 0.261 µM (active) | 0.0877 µM (active) | 0.118 µM (active) | 1.35 µM (inactive) | 1.04 µM (active) | 0.655 µM (active) | 2.08 µM (inactive) | 1.97 µM (inactive) | 0.649 µM (active) | 0.705 µM (active) | 0.388 µM (active) | 0.082 µM (active) | 0.363 µM (active) | 1 µM (active) |
| CC(N/N=C(\S)N1CCN(c2ccccn2)CC1)c1cccc[n+]1[O-] (configuration not stated) | 7.71 µM (inactive) | 43.2 µM (inactive) | 14.2 µM (inactive) | 57.1 µM (inactive) | 21.1 µM (inactive) | 3.28 µM | 20.5 µM (inactive) | 0.811 µM (active) | 13.2 µM (inactive) | 19 µM (inactive) | 2.9 µM (inactive) | 4.9 µM (inactive) | – | 15.3 µM (inactive) | 22.8 µM (inactive) | 17.4 µM (inactive) | 48.6 µM (inactive) | 4.85 µM (inactive) | 77.1 µM (inactive) | 8.13 µM (inactive) |
| CN(C)C1(N(C)C)Oc2c(c(=O)n(C)c(=O)n2C)C(c2ccccc2)C1(F)F (configuration not stated) | > 100 µM (inactive) | > 100 µM (inactive) | > 100 µM (inactive) | > 100 µM (inactive) | > 100 µM (inactive) | > 100 µM | > 100 µM (inactive) | > 100 µM (inactive) | > 100 µM (inactive) | > 100 µM (inactive) | > 100 µM (inactive) | > 100 µM (inactive) | > 100 µM (inactive) | > 100 µM (inactive) | > 100 µM (inactive) | – | > 100 µM (inactive) | > 100 µM (inactive) | > 100 µM (inactive) | > 100 µM (inactive) |
| CN(C)c1ccc(/C=C(\C#N)c2nc(-c3cc4ccccc4oc3=O)cs2)cc1 | 7.23 µM (inactive) | 1.73 µM (inactive) | > 50 µM (inactive) | > 50 µM (inactive) | > 50 µM (inactive) | > 50 µM | 5.12 µM (inactive) | > 50 µM (inactive) | > 50 µM (inactive) | 11.6 µM (inactive) | 35.5 µM (inactive) | – | > 50 µM (inactive) | > 50 µM (inactive) | 21 µM (inactive) | 8.89 µM (inactive) | 1.72 µM (inactive) | > 50 µM (inactive) | > 50 µM (inactive) | > 50 µM (inactive) |
| O=[N+]([O-])c1ccc(/C=C(/c2ccc([N+](=O)[O-])o2)S(=O)(=O)c2ccccc2)cc1 | > 100 µM (inactive) | 36.1 µM (inactive) | > 100 µM (inactive) | 35.5 µM (inactive) | – | 26.9 µM | > 100 µM (inactive) | 36.2 µM (inactive) | 40.8 µM (inactive) | 14.3 µM (inactive) | 47.5 µM (inactive) | 97.9 µM (inactive) | > 100 µM (inactive) | > 100 µM (inactive) | 95.9 µM (inactive) | 33.7 µM (inactive) | > 100 µM (inactive) | 52 µM (inactive) | > 100 µM (inactive) | > 100 µM (inactive) |
| CC(=O)Nc1ccc(-c2nc3ccccc3s2)cc1I | 18.5 µM (inactive) | 25.5 µM (inactive) | 20 µM (inactive) | 11 µM (inactive) | 0.488 µM (active) | > 83.4 µM | 26.4 µM (inactive) | > 58.1 µM (inactive) | 0.0463 µM (active) | 17.5 µM (inactive) | 42.3 µM (inactive) | 11.7 µM (inactive) | – | 41.6 µM (inactive) | 33.4 µM (inactive) | 14.3 µM (inactive) | 24.2 µM (inactive) | > 100 µM (inactive) | 1.85 µM (inactive) | 15.1 µM (inactive) |
| COC(=O)c1c(OC)cc2cc3c(c(O)c2c1C)C(=O)C1(O)C(=O)C=C(OC)C(OC(=O)CC(C)N)=C1C3=O (configuration not stated) | 13.6 µM (inactive) | 34.7 µM (inactive) | 14.2 µM (inactive) | 11.6 µM (inactive) | 6.68 µM (inactive) | 17.3 µM | 18.2 µM (inactive) | – | 15.6 µM (inactive) | 8.47 µM (inactive) | 23.2 µM (inactive) | 22.6 µM (inactive) | 87.3 µM (inactive) | 20.9 µM (inactive) | 16.5 µM (inactive) | 8.59 µM (inactive) | 2.54 µM (inactive) | 37.7 µM (inactive) | 20.9 µM (inactive) | 18.7 µM (inactive) |
| COc1cc(C(=O)O)c([N+](=O)[O-])c(OC)c1OC | > 100 µM (inactive) | > 100 µM (inactive) | > 100 µM (inactive) | > 100 µM (inactive) | > 100 µM (inactive) | > 100 µM | > 100 µM (inactive) | – | > 100 µM (inactive) | > 100 µM (inactive) | > 100 µM (inactive) | > 100 µM (inactive) | 63.2 µM (inactive) | > 100 µM (inactive) | > 100 µM (inactive) | > 100 µM (inactive) | > 100 µM (inactive) | > 100 µM (inactive) | > 100 µM (inactive) | > 100 µM (inactive) |
| O=CN1CCN(C(=O)c2ccc(Cl)cc2Cl)C1=S | 30.7 µM (inactive) | > 100 µM (inactive) | 41.1 µM (inactive) | 84.5 µM (inactive) | > 100 µM (inactive) | 78.7 µM | 34.2 µM (inactive) | 85.5 µM (inactive) | 34.6 µM (inactive) | > 100 µM (inactive) | > 100 µM (inactive) | 40.3 µM (inactive) | > 100 µM (inactive) | > 100 µM (inactive) | 26.1 µM (inactive) | > 100 µM (inactive) | 21 µM (inactive) | 77.8 µM (inactive) | 32.4 µM (inactive) | – |
| COc1cc(Cc2cc3c(c(C(=O)O)c2Br)OCO3)cc(OC)c1OC | > 100 µM (inactive) | 47.1 µM (inactive) | > 100 µM (inactive) | > 100 µM (inactive) | > 100 µM (inactive) | 41.6 µM | 55.5 µM (inactive) | 40.9 µM (inactive) | 62.1 µM (inactive) | > 100 µM (inactive) | 85.3 µM (inactive) | > 100 µM (inactive) | > 100 µM (inactive) | > 100 µM (inactive) | – | 29.6 µM (inactive) | > 100 µM (inactive) | 69.2 µM (inactive) | > 100 µM (inactive) | > 100 µM (inactive) |
| O=c1n(N=[S+]([O-])(c2ccccc2)c2ccccc2)c(=O)n2n1C1C=CC2CC1 | > 100 µM (inactive) | > 100 µM (inactive) | > 100 µM (inactive) | > 100 µM (inactive) | – | > 100 µM | > 100 µM (inactive) | > 100 µM (inactive) | > 100 µM (inactive) | > 100 µM (inactive) | > 100 µM (inactive) | > 100 µM (inactive) | > 100 µM (inactive) | > 100 µM (inactive) | > 100 µM (inactive) | > 100 µM (inactive) | > 100 µM (inactive) | > 100 µM (inactive) | > 100 µM (inactive) | > 100 µM (inactive) |
| CCOC(=O)C1=C(C)N(c2ccc(Cl)cc2)C2(O)C=CC(=O)C3C(=O)N(c4ccccc4)C(=O)C132 (configuration not stated) | 1.53 µM (inactive) | 2.25 µM (inactive) | 1.87 µM (inactive) | 1.87 µM (inactive) | – | 1.82 µM | 0.0649 µM (active) | 3.08 µM (inactive) | 1.62 µM (inactive) | 2.09 µM (inactive) | 2.36 µM (inactive) | 1.28 µM (inactive) | 2.01 µM (inactive) | 1.5 µM (inactive) | 1.76 µM (inactive) | 2.27 µM (inactive) | 1.77 µM (inactive) | 1.54 µM (inactive) | 2.3 µM (inactive) | 1.6 µM (inactive) |
| Cc1ccc(C2SCC(=O)N2NC(=O)c2ccncc2)s1 (configuration not stated) | > 100 µM (inactive) | > 100 µM (inactive) | > 100 µM (inactive) | > 100 µM (inactive) | > 100 µM (inactive) | > 100 µM | > 100 µM (inactive) | > 100 µM (inactive) | > 100 µM (inactive) | > 100 µM (inactive) | > 100 µM (inactive) | > 100 µM (inactive) | > 100 µM (inactive) | > 100 µM (inactive) | > 100 µM (inactive) | > 100 µM (inactive) | – | > 100 µM (inactive) | > 100 µM (inactive) | > 100 µM (inactive) |
| OCCCCn1cc(Cn2ncc3c(O)ncnc32)nn1 | > 100 µM (inactive) | > 100 µM (inactive) | > 100 µM (inactive) | > 100 µM (inactive) | > 100 µM (inactive) | > 100 µM | > 100 µM (inactive) | > 100 µM (inactive) | > 100 µM (inactive) | > 100 µM (inactive) | > 100 µM (inactive) | > 100 µM (inactive) | > 100 µM (inactive) | > 100 µM (inactive) | > 100 µM (inactive) | > 100 µM (inactive) | – | > 100 µM (inactive) | > 100 µM (inactive) | > 100 µM (inactive) |
